Assay results from patent US12509460B2 (Skyhawk Therapeutics, Inc., priority 2019, dated 2025).

Experiments:
[1] = tested on: mHTT protein in GM04724 (CAG 70/20) Huntington's disease patient lymphoblast cells; assay: mHTT protein assay, 2B7-MW1 assay via Mesoscale Discovery (MSD); format: cell-based, human; conditions: GM04724 Huntington's disease patient lymphoblasts
Summary of the method: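 Signal from the 2B7-MW1 antibody pair on MSD, rising with polyQ length and smaller HTT fragments, measured mHTT after 48 h compound exposure (0.6 nM–10 μM) in GM04724 cells. A parallel replicate plate gave CellTiter Glo viability.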

[2] = tested on: SMN FL and SMN Δ7 in spinal muscular atrophy (SMA) patient fibroblasts (GM03813, Coriell); assay: Quantitative splicing assay (SMN), qPCR; format: cell-based, human; conditions: Homo sapiens, Fibroblast, 24 h, SMA patient fibroblasts GM03813, 24 h, qPCR; read-out: SMN2 Splicing FL EC50
Experimental: Spinal muscular atrophy (SMA) patient fibroblasts (GM03813, Coriell) are plated in 96-well plates at 50,000 cells/well. […] Treated cells are lysed and cDNA synthesized using the Fast Advanced Cells-to-Ct kit (Thermofisher A35378) according to the manufacturer's instructions. 2 μL of each cDNA are used in qPCR reactions. […] Reactions are run in a Quant Studio 6 qPCR instrument with default settings.

[3] = tested on: SMN protein in spinal muscular atrophy (SMA) patient fibroblasts (GM03813, Coriell); assay: SMN protein assay, Mesoscale Discovery (MSD); format: cell-based, human; conditions: SMA patient fibroblasts GM03813, 48 hours, MSD; for EC50: read-out: SMN2 protein EC50
Summary of the method: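 Absolute SMN levels were quantified by MSD against an SMN protein standard curve (1 μg/ml to 19.5 pg/ml) run on each plate. Samples were lysates of GM03813 patient fibroblasts (7000 cells/well) treated 48 hours with compound doses from 2.5 μM down to 0.6 nM.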

MDR1 (P-gp) = assay: Blood-brain-barrier (BBB) penetration potential via MDCK-MDR1 permeability assay; conditions: dog; for Papp A→B at 120 min, 5 μM: MDCK-MDR1, pH 7.4, MDCK-MDR1: Papp A-B, A-B direction; for Papp B→A at 120 min, 5 μM: MDCK-MDR1, pH 7.4, MDCK-MDR1: Papp B-A, B-A direction
[4] = tested on: MDR1-MDCK cell monolayers; assay: as above; conditions: for MDCK-MDR1: % Recov A-B: A-B direction; for MDCK-MDR1: % Recov B-A: B-A direction
MDR1 = assay: as above; conditions: dog, MDCK-MDR1, pH 7.4, MDCK-MDR1: Efflux, efflux ratio

## CN(c1ccc(-c2ccc(C#N)cc2O)nn1)[C@@H]1C[C@H]2CC[C@H](N2)[C@@H]1F [Compound 38A, 4-(6-(((1S,2S,3R,5R)-2-fluoro-8-azabicyclo[3.2.1]octan-3-yl)(methyl)amino)pyridazin-3-yl)-3-hydroxybenzonitrile]
[1]
  EC50: 101 to 500 nM
[2]
  EC50: 16 to 50 nM
[3]
  SMN2 protein EC50: E (501 ≤ E ≤ 10.000)
MDR1 (P-gp)
  Papp A→B at 120 min, 5 μM: 13 ×10⁻⁶ cm/s
  Papp B→A at 120 min, 5 μM: 39.2 ×10⁻⁶ cm/s
[4]
  MDCK-MDR1: % Recov A-B: 83%
  MDCK-MDR1: % Recov B-A: 85%
MDR1
  efflux ratio at 120 min, 5 μM: 3

## CN(c1ccc(-c2ccc(C#N)cc2O)nn1)[C@H]1C[C@@H]2CC[C@@H](N2)[C@H]1F [Compound 38B, 4-(6-(((1R,2R,3S,5S)-2-fluoro-8-azabicyclo[3.2.1]octan-3-yl)(methyl)amino)pyridazin-3-yl)-3-hydroxybenzonitrile]
[1]
  EC50: 16 to 50 nM
[2]
  EC50: 16 to 50 nM
[3]
  EC50: 16 to 50 nM
MDR1 (P-gp)
  Papp A→B at 120 min, 5 μM: 18.9 ×10⁻⁶ cm/s
  Papp B→A at 120 min, 5 μM: 47.1 ×10⁻⁶ cm/s
[4]
  MDCK-MDR1: % Recov A-B: 95%
  MDCK-MDR1: % Recov B-A: 102%
MDR1
  efflux ratio at 120 min, 5 μM: 2

## CN(c1ccc(-c2cc3cccnc3cc2O)nn1)[C@@H]1C[C@H]2CC(F)(F)[C@@H](C1)N2 [Compound 45A, 6-(6-(((1S,3R,5R)-6,6-difluoro-8-azabicyclo[3.2.1]octan-3-yl)(methyl)amino)pyridazin-3-yl)quinolin-7-ol]
[1]
  EC50: 51 to 100 nM
[2]
  EC50: 101 to 500 nM
[3]
  EC50: 16 to 50 nM
MDR1 (P-gp)
  Papp A→B at 120 min, 5 μM: 9.45 ×10⁻⁶ cm/s
  Papp B→A at 120 min, 5 μM: 54.6 ×10⁻⁶ cm/s
[4]
  MDCK-MDR1: % Recov A-B: 104%
  MDCK-MDR1: % Recov B-A: 115%
MDR1
  efflux ratio at 120 min, 5 μM: 6

## CN(c1ccc(-c2cc3ncn(CC(F)(F)F)c(=O)c3cc2O)nn1)[C@@H]1C[C@H]2CCC[C@H](N2)[C@@H]1F [Compound 58A, 7-(6-(((1S,2S,3R,5R)-2-fluoro-9-azabicyclo[3.3.1]nonan-3-yl)(methyl)amino)pyridazin-3-yl)-6-hydroxy-3-(2,2,2-trifluoroethyl)quinazolin-4(3H)-one]
[1]
  EC50: 101 to 500 nM
[2]
  EC50: 101 to 500 nM
[3]
  EC50: 0.01 to 15 nM
MDR1 (P-gp)
  Papp A→B at 120 min, 5 μM: 0.36 ×10⁻⁶ cm/s
  Papp B→A at 120 min, 5 μM: 71.4 ×10⁻⁶ cm/s
[4]
  MDCK-MDR1: % Recov A-B: 86%
  MDCK-MDR1: % Recov B-A: 89%
MDR1
  efflux ratio at 120 min, 5 μM: 201

## CN(c1ccc(-c2cc3ncn(CC(F)(F)F)c(=O)c3cc2O)nn1)[C@H]1C[C@@H]2CCC[C@@H](N2)[C@H]1F [Compound 58B, 7-(6-(((1R,2R,3S,5S)-2-fluoro-9-azabicyclo[3.3.1]nonan-3-yl)(methyl)amino)pyridazin-3-yl)-6-hydroxy-3-(2,2,2-trifluoroethyl)quinazolin-4(3H)-one]
[1]
  mHTT protein EC50: E (501 ≤ E ≤ 10.000)
[2]
  EC50: 0.01 to 15 nM
[3]
  EC50: 0.01 to 15 nM
MDR1 (P-gp)
  Papp A→B at 120 min, 5 μM: 0.43 ×10⁻⁶ cm/s
  Papp B→A at 120 min, 5 μM: 53.9 ×10⁻⁶ cm/s
[4]
  MDCK-MDR1: % Recov A-B: 76%
  MDCK-MDR1: % Recov B-A: 85%
MDR1
  efflux ratio at 120 min, 5 μM: 126

## CN(c1ccc(-c2cc3ncn(CC(F)(F)F)c(=O)c3cc2O)nn1)[C@@H]1C[C@H]2CC(F)(F)[C@@H](C1)N2 [Compound 59A, 7-(6-(((1S,3R,5R)-6,6-difluoro-8-azabicyclo[3.2.1]octan-3-yl)(methyl)amino)pyridazin-3-yl)-6-hydroxy-3-(2,2,2-trifluoroethyl)quinazolin-4(3H)-one]
[1]
  EC50: 101 to 500 nM
[2]
  EC50: 51 to 100 nM
[3]
  EC50: 16 to 50 nM
MDR1 (P-gp)
  Papp A→B at 120 min, 5 μM: 2.11 ×10⁻⁶ cm/s
  Papp B→A at 120 min, 5 μM: 74 ×10⁻⁶ cm/s
[4]
  MDCK-MDR1: % Recov A-B: 97%
  MDCK-MDR1: % Recov B-A: 96%
MDR1
  efflux ratio at 120 min, 5 μM: 35

## CN(c1ccc(-c2ccc(-n3ccnn3)cc2O)nn1)[C@@H]1C[C@H]2CC[C@H](N2)[C@@H]1F [Compound 61A, 2-(6-(((1S,2S,3R,5R)-2-fluoro-8-azabicyclo[3.2.1]octan-3-yl)(methyl)amino)pyridazin-3-yl)-5-(1H-1,2,3-triazol-1-yl)phenol]
[1]
  EC50: 16 to 50 nM
[2]
  EC50: 16 to 50 nM
[3]
  EC50: 0.01 to 15 nM
MDR1 (P-gp)
  Papp A→B at 120 min, 5 μM: 4.29 ×10⁻⁶ cm/s
  Papp B→A at 120 min, 5 μM: 60.3 ×10⁻⁶ cm/s
[4]
  MDCK-MDR1: % Recov A-B: 91%
  MDCK-MDR1: % Recov B-A: 88%
MDR1
  efflux ratio at 120 min, 5 μM: 14

## CN(c1ccc(-c2ccc(-n3cnc(C#N)c3)cc2O)nn1)[C@@H]1C[C@H]2CCC[C@H](N2)[C@@H]1F [Compound 63A, 1-(4-(6-(((1S,2S,3R,5R)-2-fluoro-9-azabicyclo[3.3.1]nonan-3-yl)(methyl)amino)pyridazin-3-yl)-3-hydroxyphenyl)-1H-imidazole-4-carbonitrile]
[1]
  EC50: 51 to 100 nM
[2]
  EC50: 16 to 50 nM
[3]
  EC50: 0.01 to 15 nM
MDR1 (P-gp)
  Papp A→B at 120 min, 5 μM: 1.5 ×10⁻⁶ cm/s
  Papp B→A at 120 min, 5 μM: 46 ×10⁻⁶ cm/s
[4]
  MDCK-MDR1: % Recov A-B: 76%
  MDCK-MDR1: % Recov B-A: 91%
MDR1
  efflux ratio at 120 min, 5 μM: 31

## CN(c1ccc(-c2ccc(-n3cnc(C#N)c3)cc2O)nn1)[C@H]1C[C@@H]2CCC[C@@H](N2)[C@H]1F [Compound 63B, 1-(4-(6-(((1R,2R,3S,5S)-2-fluoro-9-azabicyclo[3.3.1]nonan-3-yl)(methyl)amino)pyridazin-3-yl)-3-hydroxyphenyl)-1H-imidazole-4-carbonitrile]
[1]
  EC50: 16 to 50 nM
[2]
  EC50: 16 to 50 nM
[3]
  EC50: 0.01 to 15 nM
MDR1 (P-gp)
  Papp A→B at 120 min, 5 μM: 2.31 ×10⁻⁶ cm/s
  Papp B→A at 120 min, 5 μM: 44.9 ×10⁻⁶ cm/s
[4]
  MDCK-MDR1: % Recov A-B: 72%
  MDCK-MDR1: % Recov B-A: 96%
MDR1
  efflux ratio at 120 min, 5 μM: 19

## CN(c1ccc(-c2ccc(-n3cnc(C#N)c3)cc2O)nn1)[C@@H]1C[C@H]2CC[C@H](N2)[C@@H]1F [Compound 69A, 1-(4-(6-(((1S,2S,3R,5R)-2-fluoro-8-azabicyclo[3.2.1]octan-3-yl)(methyl)amino)pyridazin-3-yl)-3-hydroxyphenyl)-1H-imidazole-4-carbonitrile]
[1]
  EC50: 101 to 500 nM
[2]
  EC50: 51 to 100 nM
[3]
  EC50: 16 to 50 nM
MDR1 (P-gp)
  Papp A→B at 120 min, 5 μM: 1.36 ×10⁻⁶ cm/s
  Papp B→A at 120 min, 5 μM: 39.4 ×10⁻⁶ cm/s
[4]
  MDCK-MDR1: % Recov A-B: 87%
  MDCK-MDR1: % Recov B-A: 86%
MDR1
  efflux ratio at 120 min, 5 μM: 29

## CN(c1ccc(-c2ccc(-n3cnc(C#N)c3)cc2O)nn1)[C@H]1C[C@@H]2CC[C@@H](N2)[C@H]1F [Compound 69B, 1-(4-(6-(((1R,2R,3S,5S)-2-fluoro-8-azabicyclo[3.2.1]octan-3-yl)(methyl)amino)pyridazin-3-yl)-3-hydroxyphenyl)-1H-imidazole-4-carbonitrile]
[1]
  EC50: 16 to 50 nM
[2]
  EC50: 51 to 100 nM
[3]
  EC50: 0.01 to 15 nM
MDR1 (P-gp)
  Papp A→B at 120 min, 5 μM: 1.51 ×10⁻⁶ cm/s
  Papp B→A at 120 min, 5 μM: 52.3 ×10⁻⁶ cm/s
[4]
  MDCK-MDR1: % Recov A-B: 88%
  MDCK-MDR1: % Recov B-A: 90%
MDR1
  efflux ratio at 120 min, 5 μM: 35

## CN(c1ccc(-c2cc3cccnc3cc2O)nn1)[C@@H]1C[C@H]2CC[C@H](N2)[C@@H]1F [Compound 74A, 6-(6-(((1S,2S,3R,5R)-2-fluoro-8-azabicyclo[3.2.1]octan-3-yl)(methyl)amino)pyridazin-3-yl)quinolin-7-ol]
[1]
  EC50: 16 to 50 nM
[2]
  EC50: 101 to 500 nM
[3]
  EC50: 16 to 50 nM
MDR1 (P-gp)
  Papp A→B at 120 min, 5 μM: 3.13 ×10⁻⁶ cm/s
  Papp B→A at 120 min, 5 μM: 44.5 ×10⁻⁶ cm/s
[4]
  MDCK-MDR1: % Recov A-B: 69%
  MDCK-MDR1: % Recov B-A: 81%
MDR1
  efflux ratio at 120 min, 5 μM: 14
